Results from article PMC6511888, “Synthesis, Biological Evaluation, and Molecular Modeling Studies of New Thiadiazole Derivatives as Potent P2X7 Receptor Inhibitors” (Frontiers in Chemistry, 2019).
Blank lines part the entries; values can stand above or below the compound they belong to.

Key:
Type in all cases: cell-based
P2Y2R = molecular target: T1, P2Y2R (Mus musculus, UniProt P35383); assay: 2-S-UTP-activated [Ca2+]i shifts in mouse peritoneal macrophages; conditions: 1 μM
T1 construct: endogenous in cells; host or cells: mouse peritoneal macrophages
T1 sequence (P35383 whole entry): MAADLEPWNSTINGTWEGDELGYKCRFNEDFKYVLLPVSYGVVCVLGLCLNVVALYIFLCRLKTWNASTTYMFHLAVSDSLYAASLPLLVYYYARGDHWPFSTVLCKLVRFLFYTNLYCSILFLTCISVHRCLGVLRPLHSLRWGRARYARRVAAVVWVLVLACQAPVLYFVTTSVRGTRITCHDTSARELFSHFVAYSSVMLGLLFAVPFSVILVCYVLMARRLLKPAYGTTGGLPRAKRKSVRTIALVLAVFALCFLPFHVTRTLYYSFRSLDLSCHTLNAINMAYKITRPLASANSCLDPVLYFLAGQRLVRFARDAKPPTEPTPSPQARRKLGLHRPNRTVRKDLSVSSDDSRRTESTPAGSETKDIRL
Method: (§1) Mouse peritoneal macrophages, PC12 cells, J774 cells, and HEPG2 cells were analyzed by fluorescence microscopy to measure the intracellular Ca^2+ concentrations ([Ca^2+]i). Cells were incubated with 2 μM Fura-2-AM (Molecular Probes) for 30 min, and the [Ca^2+]i mobilization was measured in the F340/F380 ratios with a FlexStation 3 multimode microplate reader (Molecular Devices). Cells were plated in translucent 96-well plates (BD Falcon) for 15 min and then washed and incubated in a saline solution with 150 NaCl, 5 KCl, 1 MgCl2, 1 CaCl2, and 10 HEPES (pH 7.4) for 30 min before measurements of [Ca^2+]i. The Ca^2+ influx was induced by stimulating cells with P2 receptor agonists. P2 receptor antagonists were added 10 min before P2 receptor agonist addition. […] Ionomycin was considered a positive control, and the other recordings were normalized in relation to the AUC.

P2Y1R = molecular target: T2, P2Y1R (Mus musculus, UniProt P49650); assay: ADP-induced [Ca2+]i shifts in mouse peritoneal macrophages; conditions: 1 μM
T2 construct: endogenous in cells; host or cells: mouse peritoneal macrophages
T2 sequence (P49650 whole entry): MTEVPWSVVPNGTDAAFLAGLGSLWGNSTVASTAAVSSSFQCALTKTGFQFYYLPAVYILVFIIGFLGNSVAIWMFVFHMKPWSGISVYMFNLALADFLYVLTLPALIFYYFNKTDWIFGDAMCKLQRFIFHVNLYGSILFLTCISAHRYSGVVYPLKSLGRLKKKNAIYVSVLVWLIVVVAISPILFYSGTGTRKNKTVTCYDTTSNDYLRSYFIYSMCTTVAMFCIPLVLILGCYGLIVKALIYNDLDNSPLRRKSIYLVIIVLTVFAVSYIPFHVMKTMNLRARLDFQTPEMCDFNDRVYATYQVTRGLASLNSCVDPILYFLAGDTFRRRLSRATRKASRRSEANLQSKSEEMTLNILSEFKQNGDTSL
Method: as §1

P2X3R = assay: α,β-meATP-induced [Ca2+]i shift; conditions: 10 μM
Method: as §1

P2Y14R = molecular target: T3, P2Y14R (Mus musculus, UniProt Q9ESG6); assay: UDP-glucose-activated [Ca2+]i shifts in mouse peritoneal macrophages; conditions: 1 μM
T3 construct: endogenous in cells; host or cells: mouse peritoneal macrophages
T3 sequence (Q9ESG6 1-338): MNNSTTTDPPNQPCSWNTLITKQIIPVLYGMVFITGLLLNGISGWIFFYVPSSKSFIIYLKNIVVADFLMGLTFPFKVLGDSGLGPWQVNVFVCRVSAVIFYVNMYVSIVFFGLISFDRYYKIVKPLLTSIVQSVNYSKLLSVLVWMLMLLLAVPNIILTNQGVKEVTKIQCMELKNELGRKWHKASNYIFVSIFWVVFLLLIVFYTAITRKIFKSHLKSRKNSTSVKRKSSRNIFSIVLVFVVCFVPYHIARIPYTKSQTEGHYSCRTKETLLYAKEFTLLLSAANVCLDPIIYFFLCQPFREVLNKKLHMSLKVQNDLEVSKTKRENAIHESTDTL
Method: as §1

P2X4R = molecular target: T4, P2X4R (Rattus norvegicus, UniProt P51577); assay: ATP-induced [Ca2+]i shifts potentiated by ivermectin in NR8383 alveolar macrophage cell line; conditions: 1 μM; NR8383 cells
T4 construct: endogenous in cells; host or cells: NR8383 rat alveolar macrophage cell line
T4 sequence (P51577 1-388): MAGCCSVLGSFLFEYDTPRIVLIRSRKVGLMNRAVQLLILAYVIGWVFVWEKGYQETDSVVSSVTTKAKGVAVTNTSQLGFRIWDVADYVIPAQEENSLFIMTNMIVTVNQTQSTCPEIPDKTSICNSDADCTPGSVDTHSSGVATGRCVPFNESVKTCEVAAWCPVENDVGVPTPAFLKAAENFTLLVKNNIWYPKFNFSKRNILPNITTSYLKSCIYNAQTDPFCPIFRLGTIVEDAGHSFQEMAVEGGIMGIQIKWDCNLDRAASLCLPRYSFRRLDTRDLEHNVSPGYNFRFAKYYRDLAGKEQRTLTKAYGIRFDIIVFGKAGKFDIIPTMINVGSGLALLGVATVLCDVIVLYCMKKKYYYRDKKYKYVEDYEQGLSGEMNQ

P2X1R = molecular target: T5, P2X1R (Mus musculus, UniProt P51576); assay: β,γ-meATP-induced intracellular Ca2+ mobilization in J774 cells; conditions: 10 μM
T5 construct: endogenous in cells; host or cells: J774 cells
T5 sequence (P51576 1-399): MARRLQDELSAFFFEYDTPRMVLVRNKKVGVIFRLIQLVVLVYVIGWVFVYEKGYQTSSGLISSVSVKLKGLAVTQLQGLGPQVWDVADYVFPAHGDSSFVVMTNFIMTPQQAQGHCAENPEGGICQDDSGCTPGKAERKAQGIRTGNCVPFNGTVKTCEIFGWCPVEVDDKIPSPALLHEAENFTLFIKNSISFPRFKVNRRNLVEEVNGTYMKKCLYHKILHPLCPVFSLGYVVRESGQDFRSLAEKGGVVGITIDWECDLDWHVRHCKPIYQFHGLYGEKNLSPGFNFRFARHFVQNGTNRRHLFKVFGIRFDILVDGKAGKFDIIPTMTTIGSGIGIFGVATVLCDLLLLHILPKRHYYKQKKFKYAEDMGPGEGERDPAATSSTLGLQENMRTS
Method: as §1

P2X2R = molecular target: T6, P2X2R (Rattus norvegicus, UniProt P49653); assay: ATP-induced [Ca2+]i shifts in PC12 cells; conditions: 1 μM
T6 construct: endogenous in cells; host or cells: PC12 cells
T6 sequence (P49653 1-472): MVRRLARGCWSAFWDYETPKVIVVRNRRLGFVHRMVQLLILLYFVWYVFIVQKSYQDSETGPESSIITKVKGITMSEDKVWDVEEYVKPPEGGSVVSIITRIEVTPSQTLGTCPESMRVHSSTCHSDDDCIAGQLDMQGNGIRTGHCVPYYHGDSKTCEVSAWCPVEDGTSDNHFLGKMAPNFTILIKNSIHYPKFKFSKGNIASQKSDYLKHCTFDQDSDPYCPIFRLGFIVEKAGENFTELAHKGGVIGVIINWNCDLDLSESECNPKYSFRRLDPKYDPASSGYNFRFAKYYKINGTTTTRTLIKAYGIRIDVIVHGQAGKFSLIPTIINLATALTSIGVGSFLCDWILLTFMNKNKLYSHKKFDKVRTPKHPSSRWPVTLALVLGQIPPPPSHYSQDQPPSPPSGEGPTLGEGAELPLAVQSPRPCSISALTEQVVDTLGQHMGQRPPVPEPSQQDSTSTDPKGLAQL
Method: as §1

Effect on β,γ-meATP-induced intracellular Ca2+ mobilization (P2X1R): inhibited
SMILES: O=C(Nc1cccc(C(=O)Nc2ccc(S(=O)(=O)O)c3cc(S(=O)(=O)O)cc(S(=O)(=O)O)c23)c1)Nc1cccc(C(=O)Nc2ccc(S(=O)(=O)O)c3cc(S(=O)(=O)O)cc(S(=O)(=O)O)c23)c1 [NF023, reference compound]

Effect on ATP-induced [Ca2+]i shifts (P2X2R): inhibited
SMILES: COc1cc(S(=O)(=O)O)cc2cc(S(=O)(=O)O)c(NC(=O)c3ccc(C)c(NC(=O)c4cccc(NC(=O)Nc5cccc(C(=O)Nc6cc(C(=O)Nc7cc8c(OC)cc(S(=O)(=O)O)cc8cc7S(=O)(=O)O)ccc6C)c5)c4)c3)cc12 [NF770]

The next lines start with the compound.

SMILES: Cc1ccc2c(c1)C=Cc1cc(C)ccc1C2c1cn(Cc2ccc(C(=O)Nc3nn[nH]n3)o2)c(=O)[nH]c1=S [AR-C 118925XX]
Effect on 2-S-UTP-activated [Ca2+]i shifts (P2Y2R): inhibited

SMILES: CNc1ncnc2c1ncn2[C@H]1C[C@H](OP(=O)(O)O)[C@@H](COP(=O)(O)O)O1 [MRS 2179]
Effect on ADP-induced [Ca2+]i shifts (P2Y1R): inhibited

SMILES: Nc1ncnc2c1ncn2[C@@H]1O[C@H](COP(=O)(O)OP(=O)(O)OP(=O)(O)O)[C@H]2OC3(O[C@H]21)C([N+](=O)[O-])=CC(=[N+]([O-])[O-])C=C3[N+](=O)[O-] (stereo partly shown) [TNP-ATP, reference compound]
Effect on activity of P2X3R agonist α,β-meATP (P2X3R): inhibited

SMILES: O=C(O)c1cc(-c2ccc(C3CCNCC3)cc2)c2ccc(-c3ccc(C(F)(F)F)cc3)cc2c1 [PPNT]
Effect on UDP-glucose-activated [Ca2+]i shifts (P2Y14R): inhibited

SMILES: O=C1CN=C(c2cccc(Br)c2)c2oc3ccccc3c2N1 [Compound 5BDBD]
Effect on ATP-induced [Ca2+]i shifts potentiated by 1 μM ivermectin (P2X4R): inhibited
